PubChem BioAssay (NCI)
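Following 48 hours of exposure in 96-well plates, responses at five concentrations were used to interpolate endpoints linearly. GI50: concentration for 50% inhibition of growth. TGI marks complete inhibition of growth.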

Key:
Assay in all cases: inhibition of tumour cell growth, NCI panel, 48 h
[1] = tested on: 786-0 renal
[2] = tested on: A498 renal
[3] = tested on: A549 NSCLC
[4] = tested on: ACHN renal
[5] = tested on: BT-549 breast
[6] = tested on: CAKI-1 renal
[7] = tested on: CCRF-CEM leukemia
[8] = tested on: COLO 205 colon
[9] = tested on: DU-145 prostate
[10] = tested on: EKVX NSCLC
[11] = tested on: HCC-2998 colon
[12] = tested on: HCT-116 colon
[13] = tested on: HCT-15 colon
[14] = tested on: HL-60(TB) leukemia
[15] = tested on: HOP-62 NSCLC
[16] = tested on: HOP-92 NSCLC
[17] = tested on: HS 578T breast
[18] = tested on: HT29 colon
[19] = tested on: IGROV1 ovarian
[20] = tested on: K-562 leukemia
[21] = tested on: KM12 colon
[22] = tested on: LOX IMVI melanoma
[23] = tested on: M14 melanoma
[24] = tested on: MALME-3M melanoma
[25] = tested on: MCF7 breast
[26] = tested on: MDA-MB-231 breast
[27] = tested on: MDA-MB-435
[28] = tested on: MDA-MB-468 breast
[29] = tested on: MOLT-4 leukemia

COc1cc(CNC(=O)/C=C/c2ccc3c(c2)OCO3)ccc1OCc1cn(-c2cccc(C(F)(F)F)c2)nn1
GI50 [1]: 6.2 µM | TGI [1]: 19.2 µM | GI50 [2]: 5.32 µM | TGI [2]: 19.1 µM | GI50 [3]: 3.71 µM | TGI [3]: 15.9 µM | GI50 [4]: 5.24 µM | TGI [4]: 18.5 µM | GI50 [5]: 4.83 µM | TGI [5]: 19.3 µM | GI50 [6]: 5.39 µM | TGI [6]: 18.5 µM | GI50 [7]: 32.1 µM | TGI [7]: > 100 µM | GI50 [8]: 10.4 µM | TGI [8]: 25 µM | GI50 [9]: 10.7 µM | TGI [9]: 28.4 µM | GI50 [10]: 13.1 µM | TGI [10]: 29.5 µM | GI50 [11]: 10.1 µM | TGI [11]: 23.7 µM | GI50 [12]: 3.83 µM | TGI [12]: 14.9 µM | GI50 [13]: 5.19 µM | TGI [13]: 26.6 µM | GI50 [14]: 23.6 µM | TGI [14]: > 100 µM | GI50 [15]: 7.29 µM | TGI [15]: 26 µM | GI50 [16]: 2.61 µM | TGI [16]: 8.28 µM | GI50 [17]: 4.39 µM | TGI [17]: 24.8 µM | GI50 [18]: 14.9 µM | TGI [18]: 36.1 µM | GI50 [19]: 15.3 µM | TGI [19]: 32.7 µM | GI50 [20]: 17.5 µM | TGI [20]: > 100 µM | GI50 [21]: 15.5 µM | TGI [21]: 43 µM | GI50 [22]: 4.75 µM | TGI [22]: 19 µM | GI50 [23]: 10.4 µM | TGI [23]: 23.3 µM | GI50 [24]: 2.44 µM | TGI [24]: 9.61 µM | GI50 [25]: 4.23 µM | TGI [25]: 22 µM | GI50 [26]: 4.58 µM | TGI [26]: 17.1 µM | GI50 [27]: 8.25 µM | TGI [27]: 23.2 µM | GI50 [28]: 10 µM | TGI [28]: 22.8 µM | GI50 [29]: 10.1 µM | TGI [29]: > 100 µM
